pIC50: −log10 of the molar value. Where two headings read alike, the source gives them in different places. One block for each compound: values may come before it.
Tests used:
[1] = target: MDM2-p53 interaction (in vitro translated MDM2, biotinylated IP3 peptide) (Homo sapiens, UniProt Q00987); experiment: MDM2-p53 interaction 96-well plate binding assay (ELISA); conditions: for inhibition at 0.001 µM: @ 0.0010 μM; for inhibition at 0.1 µM: @ 0.10 μM; for inhibition at 0.03 µM: @ 0.030 μM
SJSA-1 = experiment: Protocol B: SJSA-1 CellTiter-Glo cell viability; conditions: for pIC50: read-out: SJSA1 IC50 (Protocol B), SJSA-1 cells, CellTiter-Glo, 72 hrs; for SJSA1 (Protocol B) % at concentration: SJSA-1, Protocol B, at 10 μM
[2] = system: SJSA-1 (MDM2 amplified, p53 wild-type osteosarcoma); experiment: Protocol A: SJSA-1 growth inhibition (SRB); conditions: for IC50: read-out: SJSA-1 IC50 (μM) (Protocol A), SJSA-1, Protocol A (SRB), 72 hrs
[3] = read-out: MDM2 % @ concentration
[4] = Homo sapiens, SJSA-1, 72 h, read-out: SJSA1 IC50 (μM) (Protocol B), SJSA-1, Protocol B (CellTiter-Glo), 72 hrs
[5] = Homo sapiens, SJSA-1, 72 h, read-out: SJSA-1 IC50 (Protocol A), SJSA-1 cells, SRB, 72 hrs

Chain of MDM2-p53 interaction (in vitro translated MDM2, biotinylated IP3 peptide) (Q00987 whole entry): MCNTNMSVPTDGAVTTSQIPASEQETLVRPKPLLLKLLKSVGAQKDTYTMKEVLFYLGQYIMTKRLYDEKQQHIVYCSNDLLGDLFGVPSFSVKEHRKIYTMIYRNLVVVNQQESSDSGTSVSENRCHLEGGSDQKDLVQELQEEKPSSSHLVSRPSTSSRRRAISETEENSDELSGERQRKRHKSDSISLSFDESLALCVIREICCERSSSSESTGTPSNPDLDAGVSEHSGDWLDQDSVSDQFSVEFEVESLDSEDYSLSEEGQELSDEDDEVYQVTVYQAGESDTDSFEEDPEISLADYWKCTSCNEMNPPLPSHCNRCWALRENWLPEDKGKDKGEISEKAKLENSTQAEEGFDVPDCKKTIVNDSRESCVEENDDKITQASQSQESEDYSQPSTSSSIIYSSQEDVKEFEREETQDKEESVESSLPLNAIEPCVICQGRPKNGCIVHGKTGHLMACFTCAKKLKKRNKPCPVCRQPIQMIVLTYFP

inhibition at 0.001 µM [1, 3]: 62% | pIC50 (SJSA-1; Homo sapiens, SJSA-1, 72 h): 6.24
SMILES: Cn1cc(C(C)(O)c2cc(F)c3c(c2)C(=O)N(Cc2ccc(Cl)c[n+]2[O-])[C@@]3(OCC2(CO)CC2)c2ccc(Cl)cc2)cn1 (single isomer, unassigned) [Example 407]

IC50 ([2]; Homo sapiens, SJSA-1, 72 h): 0.11 µM | IC50 (SJSA-1; [4]): 0.18 µM
SMILES: CCC(O)(c1cc(F)c2c(c1)C(=O)N(Cc1ccc(C#N)cn1)[C@@]2(OCCOC)c1ccc(Cl)cc1)c1cn(C)cn1 (single isomer, unassigned) [Example 430]

IC50 ([2]; Homo sapiens, SJSA-1, 72 h): 0.013 µM
SMILES: CCC(O)(c1cc(F)c2c(c1)C(=O)N(Cc1ncc(Cl)cn1)[C@@]2(OCC1(CO)CC1)c1ccc(Cl)cc1)c1cn(C)cn1 (single isomer, unassigned) [Example 477]

inhibition at 0.1 µM [1, 3]: 32%
SMILES: CCC(O)(c1cc(F)c2c(c1)C(=O)N(Cc1ccc(C#N)cn1)[C@@]2(OC[C@@H](C)O)c1ccc(Cl)cc1)C1(F)CCOCC1 (single isomer, unassigned) [Example 498]
SJSA1 (Protocol B) % at concentration (SJSA-1): 96% at 10

inhibition at 0.1 µM [1, 3]: 21%
SMILES: CCC(O)(c1cc(F)c2c(c1)C(=O)N(Cc1ccc(C#N)cn1)[C@@]2(OCCO)c1ccc(Cl)cc1)C1(F)CCOCC1 (single isomer, unassigned) [Example 500]
SJSA1 (Protocol B) % at concentration (SJSA-1): 16% at 10

IC50 ([2]; Homo sapiens, SJSA-1, 72 h): 0.019 µM
SMILES: CCC(O)(c1cc(F)c2c(c1)C(=O)N(Cc1ncc(Cl)cn1)[C@@]2(OCCO)c1ccc(Cl)cc1)[C@H]1CC[C@H](O)CC1 (single isomer, unassigned) [Example 517]

IC50 ([2]; Homo sapiens, SJSA-1, 72 h): 0.21 µM | IC50 (SJSA-1; [4]): 0.07 µM
SMILES: CN1CCC(C(C)(O)c2cc(F)c3c(c2)C(=O)N(Cc2ncc(Cl)cn2)[C@@]3(OCC2(CO)CC2)c2ccc(Cl)cc2)CC1 (single isomer, unassigned) [Example 554]

inhibition at 0.001 µM [1, 3]: 55% | IC50 (SJSA-1; [4]): 0.079 µM
SMILES: CN1CCC(C(C)(O)c2cc(F)c3c(c2)C(=O)N(Cc2ccc(Cl)cn2)[C@@]3(OCC2(CO)CC2)c2ccc(Cl)cc2)CC1 (single isomer, unassigned) [Example 555]

pIC50 [2, 5]: 5.77 | pIC50 (SJSA-1; Homo sapiens, SJSA-1, 72 h): 5.47
SMILES: CO[C@]1(c2ccc(Cl)cc2)c2c(F)cc(C(C)(C)O)cc2C(=O)N1Cc1ccc(Cl)cn1 [Example 2, (3R)-3-(4-Chlorophenyl)-2-[(5-chloropyridin-2-yl)methyl]-4-fluoro-6-(2-hydroxypropan-2-yl)-3-methoxy-2,3-dihydro-1H-isoindol-1-one]

pIC50 ([2]; read-out: SJSA-1 IC50 (Protocol A), SJSA-1 cells, SRB, 72 hrs): 7.00
SMILES: CC(O)(CO)c1cc(F)c2c(c1)C(=O)N(Cc1ccc(Cl)cn1)[C@@]2(OCC1(CO)CC1)c1ccc(Cl)cc1 (stereo partly drawn) [Example 17, (3R)-3-(4-Chlorophenyl)-2-[(5-chloropyridin-2-yl)methyl]-6-(1,2-dihydroxypropan-2-yl)-4-fluoro-3-({1-[hydroxy(^2H2)methyl]cyclopropyl}(^2H2)methoxy)-2,3-dihydro-1H-isoindol-1-one]

pIC50 [2, 5]: 6.19
SMILES: C[C@@H](CO[C@]1(c2ccc(Cl)cc2)c2c(F)cc(C(C)(C)O)cc2C(=O)N1Cc1ccc(Cl)cn1)C(N)=O [Example 167, (2S)-3-{[(1R)-1-(4-Chlorophenyl)-2-[(5-chloropyridin-2-yl)methyl]-7-fluoro-5-(2-hydroxypropan-2-yl)-3-oxo-2,3-dihydro-1H-isoindol-1-yl]oxy}-2-methylpropanamide]

inhibition at 0.01 µM ([1]; @ 0.010 μM, read-out: MDM2 % @ concentration): 61%
SMILES: COc1ccc(CN2C(=O)c3cc(C(C)(O)c4cnn(C)c4)cc(F)c3[C@]2(OCC2(O)CC2)c2ccc(Cl)cc2)nc1 (stereo partly drawn) [Example 228, (3R)-3-(4-chlorophenyl)-4-fluoro-6-[1-hydroxy-1-(1-methyl-1H-pyrazol-4-yl)ethyl]-3-[(1-hydroxycyclopropyl)methoxy]-2-[(5-methoxypyridin-2-yl)methyl]-2,3-dihydro-1H-isoindol-1-one]

inhibition at 0.03 µM [1, 3]: 50% | pIC50 (SJSA-1; Homo sapiens, SJSA-1, 72 h): 5.70
SMILES: CC(C)(O)c1cc(F)c2c(c1)C(=O)N(Cc1ccc(Cl)cn1)[C@@]2(OCC1(CNCCO)CC1)c1ccc(Cl)cc1 [Example 326, (3R)-3-(4-chlorophenyl)-2-[(5-chloropyridin-2-yl)methyl]-4-fluoro-3-[(1-{[(2-hydroxyethyl)amino]methyl}cyclopropyl)methoxy]-6-(2-hydroxypropan-2-yl)-2,3-dihydro-1H-isoindol-1-one]

inhibition at 0.03 µM [1, 3]: 49%
SMILES: CC(C)(O)c1cc(F)c2c(c1)C(=O)N([C@H](c1ccc(Cl)cn1)C(O)CO)[C@@]2(OCC1(O)CC1)c1ccc(Cl)cc1 (stereo partly drawn) [Example 331, (3R)-3-(4-Chlorophenyl)-2-[(1R)-1-(5-chloropyridin-2-yl)-2,3-dihydroxypropyl]-4-fluoro-3-[(1-hydroxycyclopropyl)methoxy]-6-(2-hydroxypropan-2-yl)-2,3-dihydro-1H-isoindol-1-one]

inhibition at 0.1 µM [1, 3]: 63%
SMILES: COc1ccc(CN2C(=O)c3cc(C(C)(O)c4cnn(C)c4)cc(F)c3[C@]2(OCC2(O)CC2)c2ccc(Cl)cc2)nc1 (stereo partly drawn) [Example 347, (3R)-3-(4-chlorophenyl)-4-fluoro-6-[1-hydroxy-1-(1-methyl-1H-pyrazol-4-yl)ethyl]-3-[(1-hydroxycyclopropyl)methoxy]-2-[(5-methoxypyridin-2-yl)methyl]-2,3-dihydro-1H-isoindol-1-one]

IC50 ([2]; Homo sapiens, SJSA-1, 72 h): 0.075 µM
SMILES: CCC(O)(c1cc(F)c2c(c1)C(=O)N(Cc1ncc(Cl)cn1)[C@@]2(OCC1(C(N)=O)CC1)c1ccc(Cl)cc1)c1cn(C)cn1 (stereo partly drawn) [Example 486, 1-({[(1R)-1-(4-chlorophenyl)-2-[(5-chloropyrimidin-2-yl)methyl]-7-fluoro-5-[1-hydroxy-1-(1-methyl-1H-imidazol-4-yl)propyl]-3-oxo-2,3-dihydro-1H-isoindol-1-yl]oxy}methyl) cyclopropane-1-carboxamide]

The remaining lines, values behind:

SMILES: CCC(O)(c1cc(F)c2c(c1)C(=O)N(Cc1ccc(C#N)nc1)[C@@]2(O[C@H]1CCOC1)c1ccc(Cl)cc1)c1cn(C)cn1 (single isomer, unassigned) [Example 431]
IC50 ([2]; Homo sapiens, SJSA-1, 72 h): 0.11 µM

SMILES: CCC(O)(c1cc(F)c2c(c1)C(=O)N(Cc1ncc(C#N)cn1)[C@@]2(OCC1(C#N)CC1)c1ccc(Cl)cc1)c1cn(C)cn1 (single isomer, unassigned) [Example 462]
IC50 ([2]; Homo sapiens, SJSA-1, 72 h): 0.073 µM | IC50 (SJSA-1; [4]): 0.047 µM

SMILES: CCCC(O)(c1cc(F)c2c(c1)C(=O)N(Cc1ccc(C#N)cn1)[C@@]2(O[C@H]1CCOC1)c1ccc(Cl)cc1)c1cn(C)cn1 (single isomer, unassigned) [Example 473]
inhibition at 0.1 µM [1, 3]: 44%

SMILES: CCC(O)(c1cc(F)c2c(c1)C(=O)N(Cc1ncc(Cl)cn1)[C@@]2(O[C@H]1CCOC1)c1ccc(Cl)cc1)c1cn(C)cn1 (single isomer, unassigned) [Example 475]
IC50 ([2]; Homo sapiens, SJSA-1, 72 h): 0.028 µM

SMILES: CCC(O)(c1cc(F)c2c(c1)C(=O)N(Cc1ncc(Cl)cc1O)[C@@]2(O[C@H]1C[C@@H](O)C1)c1ccc(Cl)cc1)c1cn(C)cn1 (single isomer, unassigned) [Example 488]
inhibition at 0.1 µM [1, 3]: 56%

SMILES: CCC(O)(c1cc(F)c2c(c1)C(=O)N(Cc1ccc(C#N)cn1)[C@@]2(O[C@H]1C[C@@H](O)C1)c1ccc(Cl)cc1)[C@H]1CC[C@H](O)CC1 (single isomer, unassigned) [Example 520]
inhibition at 0.03 µM [1, 3]: 32% | IC50 (SJSA-1; read-out: SJSA1 IC50 (μM) (Protocol B), SJSA-1, Protocol B (CellTiter-Glo), 72 hrs): 3.9 µM

SMILES: CCC(O)(c1cc(F)c2c(c1)C(=O)N(Cc1ncc(Cl)cn1)[C@@]2(O[C@H]1C[C@@H](O)C1)c1ccc(Cl)cc1)C1(F)CCN(C)CC1 (single isomer, unassigned) [Example 570]
IC50 ([2]; Homo sapiens, SJSA-1, 72 h): 0.034 µM | IC50 (SJSA-1; [4]): 0.046 µM

SMILES: C[C@@H](c1ccc(Cl)cn1)N1C(=O)c2cc(C(C)(C)O)cc(F)c2[C@]1(OCC1(C(N)=O)CC1)c1ccc(Cl)cc1 [Example 70, 1-({[(1R)-1-(4-chlorophenyl)-2-[(1S)-1-(5-chloropyridin-2-yl)ethyl]-7-fluoro-5-(2-hydroxypropan-2-yl)-3-oxo-2,3-dihydro-1H-isoindol-1-yl]oxy}methyl)cyclopropane-1-carboxamide]
pIC50 [1]: 8.49

SMILES: C[C@H](c1ccc(Cl)cn1)N1C(=O)c2cc(C(C)(C)O)cc(F)c2[C@]1(OCC1(C(N)=O)CC1)c1ccc(Cl)cc1 [Example 71, 1-({[(1R)-1-(4-chlorophenyl)-2-[(1R)-1-(5-chloropyridin-2-yl)ethyl]-7-fluoro-5-(2-hydroxypropan-2-yl)-3-oxo-2,3-dihydro-1H-isoindol-1-yl]oxy}methyl)cyclopropane-1-carboxamide]
pIC50 [1]: 7.09

SMILES: CO[C@]1(c2ccc(Cl)cc2)c2ccc(C(C)(O)C(=O)NCCN(C)C)cc2C(=O)N1Cc1ccc(Cl)cn1 (stereo partly drawn) [Example 149, 2-[(1R)-1-(4-Chlorophenyl)-2-[(5-chloropyridin-2-yl)methyl]-1-methoxy-3-oxo-2,3-dihydro-1H-isoindol-5-yl]-N-[2-(dimethylamino)ethyl]-2-hydroxypropanamide]
inhibition at 1 µM ([1]; @ 1.0 μM, read-out: MDM2 % @ concentration): 53%

SMILES: CO[C@]1(c2ccc(Cl)cc2)c2ccc(C(C)(O)C(=O)NCCN(C)C)cc2C(=O)N1Cc1ccc(Cl)cn1 (stereo partly drawn) [Example 150, 2-[(1R)-1-(4-Chlorophenyl)-2-[(5-chloropyridin-2-yl)methyl]-1-methoxy-3-oxo-2,3-dihydro-1H-isoindol-5-yl]-N-[2-(dimethylamino)ethyl]-2-hydroxypropanamide]
inhibition at 0.1 µM [1, 3]: 49%

SMILES: CCC(O)(c1cc(F)c2c(c1)C(=O)N(Cc1ncc(C#N)cn1)[C@@]2(O[C@H]1CCOC1)c1ccc(Cl)cc1)[C@H]1CC[C@H](O)CC1 (stereo partly drawn) [Example 503, 2-{[(1R)-1-(4-chlorophenyl)-7-fluoro-5-{1-hydroxy-1-[trans-4-hydroxycyclohexyl]propyl}-3-oxo-1-[(3S)-oxolan-3-yloxy]-2,3-dihydro-1H-isoindol-2-yl]methyl}pyrimidine-5-carbonitrile]
inhibition at 0.001 µM [1, 3]: 87% | IC50 (SJSA-1; [4]): 0.011 µM
